Measurements: ChEMBL document CHEMBL5726493, “Compositions and methods of modulating short-chain dehydrogenase activity” (2017)

Each compound was assayed against T1, 15-hydroxyprostaglandin dehydrogenase [NAD(+)] (Homo sapiens, UniProt P15428) (assay: In Vitro Assay: Each compound for inhibiting enzymatic activity of recombinant 15-PGDH in an in vitro assay.).
T1 sequence (P15428 whole entry): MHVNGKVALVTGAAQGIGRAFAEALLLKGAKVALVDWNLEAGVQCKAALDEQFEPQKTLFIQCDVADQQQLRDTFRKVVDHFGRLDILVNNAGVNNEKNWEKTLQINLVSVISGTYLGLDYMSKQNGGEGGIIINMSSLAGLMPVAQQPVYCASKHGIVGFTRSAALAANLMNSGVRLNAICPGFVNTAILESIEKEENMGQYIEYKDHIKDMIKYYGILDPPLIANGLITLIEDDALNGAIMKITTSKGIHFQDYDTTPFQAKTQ

Structure (SMILES) | IC50
CCCC[S+]([O-])c1sc2nc(-c3nccs3)cc(-c3ccc(OCC(=O)OC)cc3)c2c1N (configuration not stated) | 8.53 nM
CCCC[S+]([O-])c1sc2nc(-c3nccs3)cc(-c3cccc(C(=O)N4CCN(C)CC4)c3)c2c1N (configuration not stated) | 36.4 nM
CCCC[S+]([O-])c1sc2nc(-c3nccs3)cc(-c3ccc(OCC(=O)O)cc3)c2c1N (configuration not stated) | 2.71 nM
CCCC[S+]([O-])c1sc2nc(-c3nccs3)cc(-c3cccc(C(=O)NCCN(C)C)c3)c2c1N (configuration not stated) | 19.3 nM
CCCC[S+]([O-])c1sc2nc(-c3nccs3)cc(-c3cccc(C(=O)O)c3)c2c1N (configuration not stated) | 20.2 nM
CCCC[S+]([O-])c1sc2nc(-c3nccs3)cc(-c3ccc(CN(C)C)cc3)c2c1N (configuration not stated) | 5.7 nM
C=CCNC(=O)c1cccc(-c2cc(-c3nccs3)nc3sc([S+]([O-])CCCC)c(N)c23)c1 (configuration not stated) | 2.5 nM
